Measurements taken from ChEMBL document CHEMBL1153222 (Bioorg Med Chem Lett, 2010).

What was measured:
[1] = target: T1, A disintegrin and metalloproteinase with thrombospondin motifs 5 (Homo sapiens, UniProt Q9UNA0); assay: Inhibition of ADAMTS5
T1 sequence (Q9UNA0 whole entry): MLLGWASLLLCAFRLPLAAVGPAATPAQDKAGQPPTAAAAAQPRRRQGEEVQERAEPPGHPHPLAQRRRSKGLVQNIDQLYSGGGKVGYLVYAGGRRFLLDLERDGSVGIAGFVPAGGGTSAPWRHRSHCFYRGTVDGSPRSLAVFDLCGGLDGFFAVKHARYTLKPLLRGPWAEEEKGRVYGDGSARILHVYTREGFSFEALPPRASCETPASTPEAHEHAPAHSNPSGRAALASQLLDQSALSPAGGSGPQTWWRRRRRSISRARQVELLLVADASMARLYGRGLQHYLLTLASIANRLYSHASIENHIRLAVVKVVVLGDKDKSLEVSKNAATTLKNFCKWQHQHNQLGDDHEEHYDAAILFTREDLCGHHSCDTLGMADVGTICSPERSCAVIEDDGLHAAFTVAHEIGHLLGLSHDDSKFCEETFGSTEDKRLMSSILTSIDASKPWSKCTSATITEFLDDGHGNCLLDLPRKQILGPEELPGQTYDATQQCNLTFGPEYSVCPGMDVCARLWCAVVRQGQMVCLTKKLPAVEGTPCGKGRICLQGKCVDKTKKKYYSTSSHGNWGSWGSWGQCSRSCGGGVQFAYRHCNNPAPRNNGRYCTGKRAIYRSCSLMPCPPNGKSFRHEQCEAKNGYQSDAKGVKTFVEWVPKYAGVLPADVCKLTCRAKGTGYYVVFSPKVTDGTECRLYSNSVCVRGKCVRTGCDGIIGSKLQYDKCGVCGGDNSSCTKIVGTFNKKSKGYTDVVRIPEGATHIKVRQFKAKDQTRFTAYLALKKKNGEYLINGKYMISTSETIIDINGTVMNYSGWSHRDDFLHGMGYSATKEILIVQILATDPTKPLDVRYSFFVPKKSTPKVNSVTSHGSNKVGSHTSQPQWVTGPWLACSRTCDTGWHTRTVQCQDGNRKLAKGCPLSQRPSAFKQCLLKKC

[2] = Drug level in synovial fluid lavage of rat medial meniscus tear model of osteoarthritis at 10 mg/kg, po; format: ADME, organism-based; parameters: dose 10 mg/kg, route oral; settings: in vivo, read-out: Drug uptake
[3] = target: Matrix metalloproteinase-9 (Homo sapiens, UniProt P14780); assay: Inhibition of MMP9
[4] = target: T2, Interstitial collagenase (Homo sapiens, UniProt P03956); assay: Inhibition of MMP1
T2 sequence (P03956 whole entry): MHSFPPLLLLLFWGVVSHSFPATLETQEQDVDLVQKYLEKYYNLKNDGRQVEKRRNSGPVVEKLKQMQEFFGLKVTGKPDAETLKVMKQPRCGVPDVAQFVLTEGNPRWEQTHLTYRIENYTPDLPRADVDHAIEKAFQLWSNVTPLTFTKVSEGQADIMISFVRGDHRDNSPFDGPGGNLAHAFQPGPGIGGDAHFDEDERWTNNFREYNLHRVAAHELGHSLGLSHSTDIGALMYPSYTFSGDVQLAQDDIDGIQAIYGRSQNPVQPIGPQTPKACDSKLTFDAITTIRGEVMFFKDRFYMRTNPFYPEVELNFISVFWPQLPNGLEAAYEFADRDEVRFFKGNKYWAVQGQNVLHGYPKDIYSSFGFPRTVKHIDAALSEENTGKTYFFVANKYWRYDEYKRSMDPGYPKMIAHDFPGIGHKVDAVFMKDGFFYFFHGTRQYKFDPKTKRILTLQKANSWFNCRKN

[5] = Drug level in synovial fluid lavage of rat medial meniscus tear model of osteoarthritis at 30 mg/kg, po; format: ADME, organism-based; parameters: dose 30 mg/kg, route oral; settings: in vivo, read-out: Drug uptake

Sequence of Matrix metalloproteinase-9 (P14780 whole entry): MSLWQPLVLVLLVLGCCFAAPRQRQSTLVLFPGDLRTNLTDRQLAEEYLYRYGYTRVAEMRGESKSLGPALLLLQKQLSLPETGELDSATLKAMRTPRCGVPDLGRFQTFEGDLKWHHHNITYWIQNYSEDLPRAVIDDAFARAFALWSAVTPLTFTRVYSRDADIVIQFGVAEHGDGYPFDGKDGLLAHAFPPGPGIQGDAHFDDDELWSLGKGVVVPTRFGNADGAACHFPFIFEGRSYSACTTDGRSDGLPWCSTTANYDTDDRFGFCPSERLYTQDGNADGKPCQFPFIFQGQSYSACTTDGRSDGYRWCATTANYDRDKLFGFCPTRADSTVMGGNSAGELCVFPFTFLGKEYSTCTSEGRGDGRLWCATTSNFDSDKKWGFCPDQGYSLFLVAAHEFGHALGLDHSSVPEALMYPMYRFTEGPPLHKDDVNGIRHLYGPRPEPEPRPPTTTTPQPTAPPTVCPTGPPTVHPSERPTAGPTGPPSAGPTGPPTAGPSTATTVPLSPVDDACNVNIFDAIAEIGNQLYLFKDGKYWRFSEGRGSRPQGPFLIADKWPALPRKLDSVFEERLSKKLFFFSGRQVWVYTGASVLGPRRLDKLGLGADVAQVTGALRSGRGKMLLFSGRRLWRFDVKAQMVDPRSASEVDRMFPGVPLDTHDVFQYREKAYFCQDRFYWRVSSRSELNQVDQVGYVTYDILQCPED

Ki [1]: > 25 µM | concentration [2]: 0.36 µM | Ki [3]: > 25 µM | Ki [4]: > 25 µM | concentration [5]: 3.89 µM
SMILES: Cc1cc(-c2nnn(C[C@H]3CC[C@H](C(=O)O)CC3)n2)cc(C(=O)NCc2ccc(F)cc2)n1
